Results on one molecule are retold here after article PMC10056636, “3-Amino-Substituted Analogues of Fusidic Acid as Membrane-Active Antibacterial Compounds” (Membranes, 2023).

Data set [1] has as its system Staphylococcus aureus (ATCC 43300) (MRSA). Put plainly: Antibacterial whole-cell growth inhibition (MIC, CO-ADD). It counts as cell-based. Particulars: for MIC: S. aureus (MRSA) ATCC 43300, inhibition ≥80%, two replicates (n = 2). How it is done:
Antibacterial screening was carried out by the serial dilution method. All bacteria were cultured in the cation-adjusted Mueller Hinton broth (CAMHB) at 37 °C overnight. A sample of each culture was then diluted 40-fold in fresh broth and incubated at 37 °C for 1.5–3 h. The resultant mid-log phase cultures were diluted (CFU/mL measured by OD600) and then added into each well containing a test compound, giving a cell density of 5 × 10^5 CFU/mL and a total volume of 50 µL. All the plates were covered and incubated at 37 °C for 18 h without shaking.
Inhibition of bacterial growth was determined by measuring the absorbance at 600 nm (OD600) with a Tecan M1000 Pro monochromator plate reader. […]

The nature of a further data set: in vitro. It counts as cell-based, human. Particulars: human, CC50. How it is done: (§1) HEK293 cells were counted manually in a Neubauer hemocytometer and then plated in 384-well plates containing the test compounds to give a density of 5000 cells per well in a final volume of 50 µL. DMEM supplemented with 10% FBS was used as the growth medium, and the cells were incubated together with the compounds for 20 h at 37 °C in 5% CO2.
(§2) The cytotoxicity (or cell viability) was measured by fluorescence, ex: 560/10 nm, em: 590/10 nm (F560/590), after addition of 5 µL of 25 µg/mL resazurin (2.3 µg/mL final concentration) and after incubation for further 3 h at 37 °C in 5% CO2. The fluorescence intensity was measured using a Tecan M1000 Pro monochromator plate reader with automatic gain control. The CC50 (50% cytotoxicity concentration) values were calculated by curve fitting of inhibition vs. log(concentration) using a sigmoidal dose–response function, with variable fitting values for bottom, top, and slope. In addition, the maximal percentage of cytotoxicity is reported as DMax, indicating any compounds with partial cytotoxicity. The curve fitting was implemented using Pipeline Pilot’s dose–response component. The results were similar to those obtained by other curve-fitting tools, such as GraphPad’s Prism and IDBS’s XlFit. Any value with > indicated samples with no activity (low DMax value) or samples with CC50 values above the maximum tested concentration (higher DMax value).
(§3) In addition, samples were flagged as partially cytotoxic if DMax ≥ 50%, even for CC50 > the maximum tested concentration.
(§4) Tamoxifen served as a positive cytotoxicity standard. Melittin was used as a positive hemolytic standard.

The subject of data set [2] is human embryonic kidney cell line HEK293 (ATCC CRL-1573). Put plainly: in vitro. The data set is classed as cell-based. The following applies: human, 20 h. How it is done: as §1, §2, §3, §4
The next data set is described as follows: Hemolysis assay. It counts as cell-based, human. The following applies: human, Dmax (maximal percentage of hemolysis). How it is done: (§5) Human whole blood was washed three times with 3 volumes of 0.9% NaCl and then resuspended in the same medium to a concentration of 0.5 × 10^8 cells/mL, as determined by manual cell count in a Neubauer hemocytometer. The washed cells were then added to 384-well plates containing the test compounds to a final volume of 50 µL. After shaking on a plate shaker for 10 min, the plates were incubated for 1 h at 37 °C. After incubation, the plates were centrifuged at 1000× g for 10 min to pellet the cells and debris; 25 µL of the supernatant was then transferred to a polystyrene 384-well assay plate.
(§6) Hemolysis was monitored by measuring the supernatant absorbance at […] (OD405). The absorbance was measured using a Tecan M1000 Pro monochromator plate reader. HC10 and HC50 (10% and 50% hemolysis concentrations, respectively) were calculated by curve fitting of inhibition vs. log(concentration) using a sigmoidal dose–response function with variable fitting values for top, bottom, and slope. In addition, the maximal percentage of hemolysis is reported as DMax, indicating any compounds with partial hemolysis. The curve fitting was implemented using Pipeline Pilot’s dose–response component. […] Any value with > indicated sample with no activity (low DMax value) or samples with HC10 values above the maximum tested concentration (higher DMax value).
(§7) In addition, samples were flagged as partially hemolytic if DMax ≥ 50%, even for HC10 > the maximum tested concentration. […]

In a further data set the test system is human red blood cells. Put plainly: Hemolysis assay. It counts as cell-based. The following applies: human, 1 h. How it is done: as §5, §6, §7
Data set [3] is described as follows: Ion permeability and rupture of planar lipid bilayers. How it is done: (§8) Synthetic 1,2-diphytanoyl-sn-glycero-3-phosphocholine (DPhPC) and 1,2-diphytanoyl-sn-glycero-3-phospho-(1′-rac-glycerol) (DPhPG) were purchased from Avanti® Polar Lipids (Avanti Polar Lipids, Inc., Alabaster, AL, USA). A KCl solution (0.1 M) was buffered with 5 mM HEPES, pH 7.4. Bilayer lipid membranes were prepared from DPhPC or DPhPG using a monolayer-opposition technique on a 50 µm-diameter aperture in a 10 µm-thick Teflon film separating the cis- and trans-compartments of the Teflon chamber. Experiments were performed in chambers containing 0.1 M KCl, 5 mM Hepes-KOH, pH 7.4.
(§9) The test compounds (4, 20, 22) were added to the cis-chamber as 10 mg/mL solutions in ethanol (to mimic the physiologically relevant conditions) up to the final concentrations and the effects of the compounds on the ion permeability of the model lipid membranes were studied. Ag/AgCl electrodes with 1.5% agarose/2 M KCl bridges were used to apply the transmembrane voltage (V) and measure the transmembrane current (I). ‘Positive voltage’ refers to the case in which the cis-side compartment is positive with respect to the trans-side. All experiments were performed at room temperature.
(§10) The current was measured using an Axopatch 200B amplifier (Molecular Devices, LLC, Orlean, CA, USA) in voltage clamp mode. Data were digitized using a Digidata 1440A and analyzed using pClamp 10.0 (Molecular Devices, LLC, Orlean, CA, USA) and Origin 8.0 (OriginLab Corporation, Northampton, MA, USA). The data were acquired at a sampling frequency of 5 kHz using low-pass filtering at 200 Hz.
(§11) The threshold concentrations (Cbr) of the derivatives required to rupture the bilayers composed of DPhPC or DPhPG at a transmembrane voltage of 100 mV were determined. Cbr-values were averaged from 3 to 4 bilayers and presented as mean ± standard error (p ≤ 0.05).

The nature of data set [4]: Ion permeability, pore formation and rupture of planar lipid bilayers. The protocol:
as §8, §9, §10, §11
Pore-forming ability of compound 22 was studied by applying transmembrane voltages in a range of 50–200 mV with 50 mV step and by increasing the derivative concentration in the bilayer bathing solution from 10 to 150 µg/mL.

Data set [5] in a line: Measurement of the membrane boundary potential (K+-nonactin conductance). Particulars: DPhPG, 0.1 M KCl, pH 7.4, 50 mV. The protocol: Measurement of the membrane boundary potential. Virtually solvent-free planar lipid bilayers were made of DPhPC or DPhPG as described above. After the membrane was completely formed and stabilized and its stability was assessed by applying voltages in a range from −200 to 200 mV with a 50 mV step for 5–10 min, stock solutions of nonactin A (7 μg/mL in ethanol) were added to the bathing solution (0.1 M KCl, 5 mM HEPES, pH 7.4) in both chamber compartments to obtain a final concentration ranging from 0.1 to 1 μM.
Test derivatives (4, 20, 22) as 10 mg/mL solutions in ethanol were added to both compartments in a concentration range from 5 µg/mL to Cbr in increments of 25 µg/mL.
The conductance of the bilayers was determined by measuring the membrane conductance (G) at a constant transmembrane voltage of 50 mV. In the subsequent calculations, the membrane conductance was assumed to be related to the membrane boundary potential (φb), the potential drop between the aqueous solution and the membrane hydrophobic core, by the Boltzmann distribution (1) Gm/Gm0=exp(eΔφb/kT) where Gm and Gm^0 are the steady-state membrane conductances induced by K^+-nonactin in the presence and absence of test compounds, respectively; e, k, and T have their usual meanings.
The changes in the membrane boundary potential for the defined experimental conditions were averaged from 4 bilayers and presented as mean ± standard deviation (p ≤ 0.05).

SMILES strings stand for the structures. In brackets after ≈: the same amount, converted by molar mass. Read-outs that look alike come from different tables or passages of the source.

For orientation: MIC means the lowest concentration found to suppress growth. As a reminder, the CC50 is the concentration giving 50% cytotoxicity. Read a high CC50 as better tolerance by the cells. One may read the melting point as the temperature, or range, at which the solid turns liquid. As for `COC(=O)/C(CCC=C(C)C)=C1\[C@@H](OC(C)=O)C[C@@]2(C)[C@@H]1C[C@@H](O)[C@@H]1[C@@]3(C)CC[C@H](NC(=O)c4cnccn4)[C@@H](C)C3CC[C@@]12C` (stereo partly drawn) [Compound 4, Methyl (2Z)-2-{(3β,4α,8α,11α,14β,16β)-16-(acetyloxy)-11-hydroxy-4,8,10,14-tetramethyl-3-[(pyrazin-2-ylcarbonyl)amino]gonan-17-ylidene}-6-methylhept-5-enoate], the melting point fell in the range of 151 to 153 °C. The MIC in data set [1] was ≤0.25 ≤0.25 µg/mL. Also, the “primary screening: antimicrobial activity” value in data set [1] (S. aureus (MRSA), primary screen at 32 μg/mL) is reported as “showed antimicrobial activity”. In [1] (Staphylococcus aureus, read-out: MIC), the MIC turned out to be 0.25 µg/mL (≈ 0.393 µM). The CC50 at 20 h in the data set “in vitro” is 24 µg/mL (≈ 37.7 µM). In [2], the CC50 is recorded as above 32 µg/mL. For the same molecule, the hemolysis at 1 h in “Hemolysis assay” came to 3.9%. Further, the HC50 in the data set with human red blood cells is >32 >32 µg/mL. In addition, in data set [3] (DPhPC uncharged membranes), the “concentration up to which addition did not increase the ion permeability of the lipid bilayers” value is at most 225 µg/mL. Further, the “Cbr (threshold concentration required to rupture the bilayer)” value in [3] (DPhPC, 0.1 M KCl, pH 7.4, 100 mV) is 225 ± 15 µg/mL. Further, the “concentration up to which ionic permeability of lipid bilayers is not affected” value in data set [4] (DPhPG) is on record as “up to 170 μg/mL”. The “formation of ion-permeable pores” value in data set [4] (DPhPG bilayers) was “not able to form transient ion-permeable pores”. In addition, in data set [4] (DPhPG, 0.1 M KCl, pH 7.4, 100 mV), the “Cbr (threshold concentration required to rupture the bilayer)” value was 163 ± 11 µg/mL. The “−Δφb(max) (maximum decrease in the membrane boundary potential)” value in data set [5] came to 21 ± 5 mV.
